For series [1], the system named is purified invented protein (active fragment (C)). As to the kind of experiment: Substrate specificity: reduction activity of the invented protein on carbonyl compounds (NADPH absorbance decrease at 340 nm). Type of series: biochemical, Stenotrophomonas sp. SC-1 strain.
Series [2] in a line: Optimal pH of the reduction activity on ethyl benzoylformate. It is filed as biochemical. To be noted: ethyl benzoylformate 10 mM, NADPH 0.5 mM, pH 5.5 to 10, 30° C., 1 minute, 340 nm.
Where [3] appears, read: substrate 1 mM, NADPH 0.5 mM, 100 mM phosphate buffer pH 7, 30° C., 5 minutes, relative value, activity on ethyl benzoylformate = 100%.

Turning to `COC(=O)CC(=O)CBr` [Methyl 4-bromo-3-oxobutyrate], the “Relative activity (%)” value in series [1] (setting [3]) was determined as 3.9%.
Same read-out and setting: to `CCOC(=O)C(=O)c1ccccc1` [Eethyl benzoylformate, ethyl benzoylformate] belongs 100%.
For `CCOC(=O)CC(=O)CCl` [Ethyl 4-chloro-3-oxobutyrate], the “Relative activity (%)” value in series [1] (pH 7) was 0.5%.
`CCOC(=O)C(=O)CCc1ccccc1` [Ethyl 4-phenyl2-oxobutyrate]: the “Relative activity (%)” value in series [1] (setting [3]) is 1.5%.
Turning to `O=C(O)CCC(=O)c1ccccc1` [3-Benzoylpropionic acid], the “Relative activity (%)” value in series [1] (setting [3]) stood at 3.3%.
Still for that read-out and setting: the value for `CCOC(=O)C(C)=O` [Ethyl pyruvate] was 33.7%.
Turning to `CCC=O` [Propionaldehyde], the “Relative activity (%)” value in series [1] (setting [3]) is 8.6%.

B1: invented protein (active fragment (C)): purified reductase (SEQ ID NO:1) of Stenotrophomonas sp. SC-1, expressed in E. coli HB101 with plasmid pTrcRs (protein, listed as Stenotrophomonas sp.)
chain: MTATRELGRSGLHVAPIAFGGNVFGWSADEKTSFALLDAFVEAGFNLVDTADVYSAWVPGNQGGESETILGRWFKHSGKRDKVVLATKVAKWSEHPGLSADNITAAVEDSLRRLQTDVIDLYQAHEDDESTPLESTLAAFGRLIEQGKVRAIGASNYSAERLSDALKVSADYKLPRYETLQPEYNLYDRAGYEAGLEAVVRDAQLGVISYYSLASGFLSGKYRSAADAGKSSARGQSVVDKYVNPRGLRILGALDDVASTHGVSPSQIAIAWLIARPGITAPIVSATSVEQLNDVLAAAKVALSAQEVQQLDAASAEQA
Turning to B1, in series [2], the “optimal pH” value is 7.0.

The values above are taken from patent US8252563B2, “Reductase, gene thereof and method of using the same” (Sumitomo Chemical Company, Limited, priority 2007, dated 2012).
